For orientation: IC50 means the concentration needed to halve the response being measured.

The record followed here is patent US11306078B2, “Piperidine CXCR7 receptor modulators” (IDORSIA PHARMACEUTICALS LTD., priority 2016, dated 2022).

The target in the assay is human chemokine receptor CXCR7 (Homo sapiens (Human), UniProt P25106). Nature of the assay: Tango CXCR7-bla U2OS beta-arrestin recruitment assay (beta-lactamase reporter, FRET), antagonism of CXCL12/SDF1-α.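 Also: compounds preincubated 15 min before CXCL12 addition, then 22 h at 37 °C, FRET emission ratio read with CCF4-AM substrate after 2 h.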 The assay is classed as cell-based. As to conditions: antagonistic effect on CXCR7; Tango CXCR7-bla U2OS cells, CXCL12/SDF1-α at its EC80.
Chain of human chemokine receptor CXCR7 (P25106 whole entry): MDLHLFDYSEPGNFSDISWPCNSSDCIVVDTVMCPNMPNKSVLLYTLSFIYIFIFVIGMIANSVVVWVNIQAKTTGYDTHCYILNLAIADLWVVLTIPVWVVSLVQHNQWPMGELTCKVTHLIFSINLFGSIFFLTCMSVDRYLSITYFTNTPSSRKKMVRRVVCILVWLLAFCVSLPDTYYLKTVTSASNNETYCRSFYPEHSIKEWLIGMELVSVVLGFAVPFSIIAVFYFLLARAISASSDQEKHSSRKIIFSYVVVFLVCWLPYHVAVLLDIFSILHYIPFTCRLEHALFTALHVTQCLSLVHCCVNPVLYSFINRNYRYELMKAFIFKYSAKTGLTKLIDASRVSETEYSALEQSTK
`O=C(N[C@@H]1CCN(C2CCCC2)C[C@H]1C(=O)NC1(c2ccccn2)CC1)c1cn(-c2ccc(F)cc2F)nn1` (racemic) [Example 1.166, rac-(3R*,4R*)-1-Cyclopentyl-4-{[1-(2,4-difluoro-phenyl)-1H-[1,2,3]triazole-4-carbonyl]-amino}-piperidine-3-carboxylic acid (1-pyridin-2-yl-cyclopropyl)-amide] yielded an IC50 of 52 nM. In turn, `CC(C1CC1)N1CC[C@@H](NC(=O)c2cc(-c3ccc(F)cc3F)on2)[C@H](C(=O)N(C)C)C1` (stereo partly drawn) [Example 2.013] had an IC50 of 28 nM. `C[C@@H]1CCC[C@H]1N1CC[C@@H](NC(=O)c2cc(-c3c(F)cc(F)cc3F)on2)[C@H](C(=O)N2CCC2)C1` (relative stereo) [Example 1.108, 5-(2,4,6-Trifluoro-phenyl)-isoxazole-3-carboxylic acid [(3R*,4R*)-3-(azetidine-1-carbonyl)-1-((1RS,2RS)-2-methyl-cyclopentyl)-piperidin-4-yl]-amide] displayed an IC50 of 581 nM. Under `O=C(N[C@@H]1CCN([C@@H]2CCCC[C@H]2O)C[C@H]1C(=O)NC1(c2ncccn2)CC1)c1cc(-c2ccc(F)cc2F)on1` [Example 2.06] stands 4 nM; under `C[C@@H]1CC[C@H]1N1CC[C@@H](NC(=O)c2cc(-c3ccc(F)cc3F)on2)[C@H](C(=O)N(C)C)C1` [Example 2.016a], 49 nM; under `CCNC(=O)[C@@H]1CN(C2CCCCC2)CC[C@H]1NC(=O)c1cc(-c2ccc(F)cc2F)on1` (racemic) [Example 1.012, rac-(3R*,4R*)-1-Cyclohexyl-4-{[5-(2,4-difluoro-phenyl)-isoxazole-3-carbonyl]-amino}-piperidine-3-carboxylic acid ethylamide], 58 nM. Under `CC(NC(=O)[C@H]1CN(C2CCCC2)CC[C@@H]1NC(=O)c1cc(-c2ccc(F)cc2F)on1)C1CCCO1` (stereo partly drawn) [Example 4.037] stands 280 nM. Under `O=C(N[C@H]1CCN(C2CCC2)C[C@@H]1C(=O)NC1(c2cccc[n+]2[O-])CC1)c1cc(-c2ccc(F)cc2F)on1` [Example 2.063] stands 219 nM; under `O=C(N[C@@H]1CCN(C2CCCCC2)C[C@H]1C(=O)NCC(F)F)c1cc(-c2ccc(F)cc2F)on1` (racemic) [Example 1.026, rac-(3R*,4R*)-1-Cyclohexyl-4-{[5-(2,4-difluoro-phenyl)-isoxazole-3-carbonyl]-amino}-piperidine-3-carboxylic acid (2,2-difluoro-ethyl)-amide], 627 nM. `CN(C)C(=O)[C@]1(C)CN(C2CCCCC2)CC[C@H]1NC(=O)c1cc(-c2ccc(F)cc2F)on1` (racemic) [Example 5.002, rac-(3R*,4R*)-1-Cyclohexyl-4-{[5-(2,4-difluoro-phenyl)-isoxazole-3-carbonyl]-amino}-3-methyl-piperidine-3-carboxylic Acid Dimethylamide]: inhibition was half-maximal at 857 nM (IC50).

Compound `CN(C)C(=O)[C@@H]1CN(C2CCCCC2)CC[C@H]1NC(=O)c1nnc(-c2ccc(F)cc2F)o1` (single isomer, unassigned) [Example 3.003a, (3R*,4R*)-1-Cyclohexyl-4-{[5-(2,4-difluoro-phenyl)-[1,3,4]oxadiazole-2-carbonyl]-amino}-piperidine-3-carboxylic acid dimethylamide] had an IC50 of 771 nM. Under `O=C(N[C@H]1CCN(CC2CC2)C[C@@H]1C(=O)NC1(c2ncccn2)CC1)c1noc(-c2ccc(F)cc2F)n1` [Example 7.008, (3S,4S)-1-Cyclopropylmethyl-4-{[5-(2,4-difluoro-phenyl)-[1,2,4]oxadiazole-3-carbonyl]-amino}-piperidine-3-carboxylic acid (1-pyrimidin-2-yl-cyclopropyl)-amide] stands 51 nM. Take `C[C@@H](NC(=O)[C@@H]1CN(C2CCCCC2)CC[C@H]1NC(=O)c1cc(-c2ccc(F)cc2F)on1)c1cnccn1` [Example 1.09]: the 50% inhibitory concentration (IC50) came to 35 nM. Under `O=C(N[C@@H]1CCN(CC2CC2)C[C@H]1C(=O)NC1(c2ccccn2)CC1)c1cc(-c2ccccc2F)on1` (racemic) [Example 3.013, rac-(3R*,4R*)-1-Cyclopropylmethyl-4-{[5-(2-fluoro-phenyl)-isoxazole-3-carbonyl]-amino}-piperidine-3-carboxylic acid (1-pyridin-2-yl-cyclopropyl)-amide] stands 153 nM; under `O=C(N[C@@H]1CCN(C2CCCCC2)C[C@H]1C(=O)N1CCC(c2ccccn2)C1)c1cc(-c2ccc(F)cc2F)on1` (relative stereo) [Example 1.089, 5-(2,4-Difluoro-phenyl)-isoxazole-3-carboxylic acid [(3R*,4R*)-1-cyclohexyl-3-((3RS)-3-pyridin-2-yl-pyrrolidine-1-carbonyl)-piperidin-4-yl]-amide], 472 nM. `O=C(N[C@@H]1CCN(C2CCCCC2)C[C@H]1C(=O)NCc1ccncn1)c1cc(-c2ccc(F)cc2F)on1` (racemic) [Example 1.034, rac-(3R*,4R*)-1-Cyclohexyl-4-{[5-(2,4-difluoro-phenyl)-isoxazole-3-carbonyl]-amino}-piperidine-3-carboxylic acid (pyrimidin-4-ylmethyl)-amide] returned an IC50 of 772 nM.

Compound `CC(C)(CC(F)(F)F)NC(=O)[C@@H]1CN(C2CCCCC2)CC[C@H]1NC(=O)c1cc(-c2ccc(F)cc2F)on1` [Example 1.08] came in with an IC50 of 564 nM. Under `CC(C)(NC(=O)[C@H]1CN(C2CCC2)CC[C@@H]1NC(=O)c1cc(-c2ccc(F)cc2F)on1)c1ncccn1` [Example 4.083] stands 11 nM; under `CC(C)(C)N1CC[C@@H](NC(=O)c2cc(-c3ccc(F)cc3F)on2)[C@H](C(=O)NC2(c3ncccn3)CC2)C1` [Example 4.101a], 18 nM; under `CCN1CC[C@@H](NC(=O)c2cc(-c3ccc(F)cc3F)on2)[C@H](C(=O)NC(C)c2ccccn2)C1` (stereo partly drawn) [Example 2.008], 405 nM. Under `C[C@@H](NC(=O)[C@H]1CN(CC2CC2)CC[C@@H]1NC(=O)c1cc(-c2ccc(F)cc2F)no1)c1ccccn1` (single isomer, unassigned) [Example 1.154a, (3S,4S)-1-Cyclopropylmethyl-4-{[3-(2,4-difluoro-phenyl)-isoxazole-5-carbonyl]-amino}-piperidine-3-carboxylic acid ((R)-1-pyridin-2-yl-ethyl)-amide or (3R,4R)-1-Cyclopropylmethyl-4-{[3-(2,4-difluoro-phenyl)-isoxazole-5-carbonyl]-amino}-piperidine-3-carboxylic acid ((R)-1-pyridin-2-yl-ethyl)-amide] stands 46 nM; under `CN(CCc1ccccc1)C(=O)[C@@H]1CN(C2CCCC2)CC[C@H]1NC(=O)c1cc(-c2ccc(F)cc2F)on1` [Example 2.005], 25 nM; under `C[C@@H](NC(=O)[C@@H]1CN(C2CCCCC2)CC[C@H]1NC(=O)c1cn(-c2ccc(F)cc2F)nn1)C1CCC1` (relative stereo) [Example 1.134, (3R*,4R*)-1-Cyclohexyl-4-{[1-(2,4-difluoro-phenyl)-1H-[1,2,3]triazole-4-carbonyl]-amino}-piperidine-3-carboxylic acid ((R)-1-cyclobutyl-ethyl)-amide], 266 nM.

`COc1ccccc1C(C)NC(=O)[C@H]1CN(CC2CC2)CC[C@@H]1NC(=O)c1cc(-c2ccc(F)cc2F)on1` (stereo partly drawn) [Example 4.072] showed an IC50 of 16 nM. Under `COCC(C)(C)NC(=O)[C@@H]1CN(C2CCCCC2)CC[C@H]1NC(=O)c1cc(-c2ccc(F)cc2F)no1` (racemic) [Example 1.115, rac-(3R*,4R*)-1-Cyclohexyl-4-{[3-(2,4-difluoro-phenyl)-isoxazole-5-carbonyl]-amino}-piperidine-3-carboxylic acid (2-methoxy-1,1-dimethyl-ethyl)-amide] stands 566 nM; under `C[C@@H]1CC[C@H]1N1CC[C@@H](NC(=O)c2cc(-c3ccc(F)cc3F)on2)[C@H](C(=O)N(C)C)C1` [Example 2.016b], 63 nM; under `C[C@@H](NC(=O)[C@@H]1CN(C2CCCCC2)CC[C@H]1NC(=O)c1cc(-c2ccc(F)cc2F)no1)c1cnccn1` (relative stereo) [Example 1.133, (3R*,4R*)-1-Cyclohexyl-4-{[3-(2,4-difluoro-phenyl)-isoxazole-5-carbonyl]-amino}-piperidine-3-carboxylic acid ((R)-1-pyrazin-2-yl-ethyl)-amide], 594 nM. Under `O=C(N[C@@H]1CCN(C2CCCCC2)C[C@H]1C(=O)NCCF)c1cc(-c2ccc(F)cc2F)on1` (racemic) [Example 1.011, rac-(3R*,4R*)-1-Cyclohexyl-4-{[5-(2,4-difluoro-phenyl)-isoxazole-3-carbonyl]-amino}-piperidine-3-carboxylic acid (2-fluoro-ethyl)-amide] stands 282 nM; under `O=C(N[C@@H]1CCN(CC2CC2)C[C@H]1C(=O)NC1(c2ncccn2)CC1)c1cc(-c2c(F)cc(F)cc2F)on1` (single isomer, unassigned) [Example 30.20b, (3R*,4R*)-1-Cyclopropylmethyl-4-{[5-(2,4,6-trifluoro-phenyl)-isoxazole-3-carbonyl]-amino}-piperidine-3-carboxylic acid (1-pyrimidin-2-yl-cyclopropyl)-amide], 4 nM. For `CC(C)NC(=O)[C@@H]1CN(C2CCCCC2)CC[C@H]1NC(=O)c1cc(-c2ccc(F)cc2F)on1` (racemic) [Example 1.008, rac-(3R*,4R*)-1-Cyclohexyl-4-{[5-(2,4-difluoro-phenyl)-isoxazole-3-carbonyl]-amino}-piperidine-3-carboxylic acid isopropylamide], half-maximal inhibition (IC50) was put at 394 nM.

Turning to `C[C@@H](NC(=O)[C@@H]1CN(C2CCCCC2)CC[C@H]1NC(=O)c1cc(-c2ccc(F)cc2F)on1)C1CCC1` (relative stereo) [Example 1.091, (3R*,4R*)-1-Cyclohexyl-4-{[5-(2,4-difluoro-phenyl)-isoxazole-3-carbonyl]-amino}-piperidine-3-carboxylic acid ((R)-1-cyclobutyl-ethyl)-amide], it took 103 nM to reach half-maximal inhibition (IC50). Against the preceding compound, the IC50 is about 3.8-fold lower. Under `C[C@@H](NC(=O)[C@H]1CN(C2CCC2)CC[C@@H]1NC(=O)c1cc(-c2ccc(F)cc2F)on1)c1ncccn1` [Example 4.084] stands 232 nM; under `CCN1CC[C@H](NC(=O)c2cc(-c3ccc(F)cc3F)on2)[C@@H](C(=O)N[C@H](C)c2cccc(C)n2)C1` [Example 4.095], 57 nM.
